The values below come from patent US20110136854A1, “NOVEL 9-AZA-BICYCLO[3.3.1]NON-3-YLOXY CHROMEN-2-ONE DERIVATIVES AND THEIR USE AS MONOAMINE NEUROTRANSMITTER RE-UPTAKE INHIBITORS” (NeuroSearch A/S, priority 2008, published 2011).

What all share (assay type): biochemical
Assay [1] deals with T1, reuptake of serotonine (5-HT) in synaptosomes (Rattus norvegicus, UniProt P31652).
T1 construct: serotonine (5-HT) in synaptosomes as described in WO 97/16451; from tissue
The assay is described as follows: Inhibition of 5-HT reuptake in synaptosomes. The source says:
(§1) Compounds of the invention may be tested for their ability to inhibit reuptake of the monoamines dopamine, noradrenaline and serotonin in synaptosomes e.g. such as described in WO 97/30997 (NeuroSearch NS) or WO 97/16451 (NeuroSearch A/S). Based on the balanced activity observed in these tests the compound of the invention is considered useful for the treatment, prevention or alleviation of a disease or a disorder or a condition of a mammal, including a human, which disease, disorder or condition is responsive to inhibition of monoamine neurotransmitter re-uptake in the central nervous system.
(§2) Compounds were tested for their ability to inhibit the reuptake of the mono-amine neurotransmitters dopamine (DA) noradrenaline (NA) and serotonine (5-HT) in synaptosomes as described in WO 97/16451 (NeuroSearch NS).
(§3) The test values are given as IC50 (the concentration (μM) of the test substance which inhibits the specific binding of ^3H-DA, ^3H-NA, or ^3H-5-HT by 50%).

The target in assay [2] is T2, reuptake of noradrenaline (NA) in synaptosomes (Rattus norvegicus, UniProt Q63380).
T2 construct: in synaptosomes as described in WO 97/16451; from tissue
T2 sequence (Q63380 1-617): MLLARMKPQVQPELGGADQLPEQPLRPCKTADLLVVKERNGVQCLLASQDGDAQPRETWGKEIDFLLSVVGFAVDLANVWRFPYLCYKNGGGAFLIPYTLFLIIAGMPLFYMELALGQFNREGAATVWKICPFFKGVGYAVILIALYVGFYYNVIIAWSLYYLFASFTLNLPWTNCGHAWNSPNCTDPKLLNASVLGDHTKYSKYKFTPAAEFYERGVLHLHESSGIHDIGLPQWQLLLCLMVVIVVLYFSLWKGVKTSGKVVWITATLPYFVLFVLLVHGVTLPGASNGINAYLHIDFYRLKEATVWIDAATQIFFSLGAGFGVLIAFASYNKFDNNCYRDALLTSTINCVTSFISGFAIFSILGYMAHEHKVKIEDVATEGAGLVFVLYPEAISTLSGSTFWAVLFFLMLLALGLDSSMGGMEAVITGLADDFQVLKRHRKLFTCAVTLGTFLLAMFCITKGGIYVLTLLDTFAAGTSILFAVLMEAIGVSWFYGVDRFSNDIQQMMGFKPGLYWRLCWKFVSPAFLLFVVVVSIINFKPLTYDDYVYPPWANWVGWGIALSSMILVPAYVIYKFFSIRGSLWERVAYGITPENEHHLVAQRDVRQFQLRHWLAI
The assay is described as follows: Inhibition of NA reuptake in synaptosomes.
Excerpt: as §1, §2, §3

In assay [3] the target is T3, reuptake of dopamine (DA) in synaptosomes (Rattus norvegicus, UniProt P23977).
T3 construct: in synaptosomes as described in WO 97/16451; from tissue
T3 sequence (P23977 whole entry): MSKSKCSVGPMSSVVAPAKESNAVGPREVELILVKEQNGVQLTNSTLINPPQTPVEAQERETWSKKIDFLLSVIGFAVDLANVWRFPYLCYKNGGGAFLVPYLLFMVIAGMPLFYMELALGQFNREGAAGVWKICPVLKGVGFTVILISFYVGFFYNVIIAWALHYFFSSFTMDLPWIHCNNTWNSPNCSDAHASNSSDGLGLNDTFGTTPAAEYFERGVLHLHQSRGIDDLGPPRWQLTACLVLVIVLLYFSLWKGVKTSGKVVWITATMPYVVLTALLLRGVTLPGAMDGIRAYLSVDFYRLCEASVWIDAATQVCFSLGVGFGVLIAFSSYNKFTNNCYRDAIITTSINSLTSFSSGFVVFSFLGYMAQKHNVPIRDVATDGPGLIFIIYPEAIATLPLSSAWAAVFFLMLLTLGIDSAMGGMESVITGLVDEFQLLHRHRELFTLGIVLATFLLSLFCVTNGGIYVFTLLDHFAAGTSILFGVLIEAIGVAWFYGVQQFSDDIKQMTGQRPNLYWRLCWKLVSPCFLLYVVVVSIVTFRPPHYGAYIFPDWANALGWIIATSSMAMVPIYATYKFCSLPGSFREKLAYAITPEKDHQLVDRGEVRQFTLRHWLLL
The assay is described as follows: Inhibition of DA reuptake in synaptosomes. The following applies: 3H-DA, read-out: DA-uptake IC50.
Excerpt: as §1, §2, §3

Where a name gives a salt, the structure may show the parent alone. Read-outs that look alike come from different tables or passages of the source.

T1 sequence (P31652 whole entry): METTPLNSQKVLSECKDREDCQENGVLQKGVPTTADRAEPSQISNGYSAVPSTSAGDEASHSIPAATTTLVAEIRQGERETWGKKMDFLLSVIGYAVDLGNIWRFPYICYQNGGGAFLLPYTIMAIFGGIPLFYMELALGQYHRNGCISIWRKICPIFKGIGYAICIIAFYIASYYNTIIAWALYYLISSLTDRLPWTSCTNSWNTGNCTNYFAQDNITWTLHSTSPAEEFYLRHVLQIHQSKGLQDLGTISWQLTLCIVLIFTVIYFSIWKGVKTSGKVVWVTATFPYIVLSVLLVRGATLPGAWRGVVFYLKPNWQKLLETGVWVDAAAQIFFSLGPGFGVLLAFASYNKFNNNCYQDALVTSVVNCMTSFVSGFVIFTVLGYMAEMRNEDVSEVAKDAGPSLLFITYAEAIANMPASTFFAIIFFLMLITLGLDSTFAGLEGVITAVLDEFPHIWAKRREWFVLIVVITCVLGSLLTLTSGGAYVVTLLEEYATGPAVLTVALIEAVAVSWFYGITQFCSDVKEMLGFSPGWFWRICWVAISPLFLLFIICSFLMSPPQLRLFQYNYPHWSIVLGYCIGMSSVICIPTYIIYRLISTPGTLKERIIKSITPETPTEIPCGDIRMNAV

As for `O=c1ccc2ccc(O[C@@H]3C[C@H]4CCC[C@@H](C3)N4)cc2o1` [Compound A1, exo-7-(9-Aza-bicyclo[3.3.1]non-3-yloxy)-chromen-2-one hydrochloric acid salt], the 50% inhibitory concentration (IC50) in assay [1] amounted to 1.3 nM; in assay [2], 76 nM; in assay [3] it was 240 nM.
For the molecule `CN1[C@@H]2CCC[C@H]1C[C@H](Oc1ccc3ccc(=O)oc3c1)C2` [Compound A2, exo-7-(9-Methyl-9-aza-bicyclo[3.3.1]non-3-yloxy)-chromen-2-one hydrochloric acid salt], the IC50 in assay [1] came to 2.9 nM; in assay [2] (synaptosomes, 3H-NA, read-out: NA-uptake IC50), 270 nM; in assay [3] it was 150 nM.
